Our source for the IC50 values is ChEMBL document CHEMBL1134970, “The TosMIC approach to 3-(oxazol-5-yl) indoles: application to the synthesis of indole-based IMPDH inhibitors” (Bioorg Med Chem Lett, 2002).

As usually defined, the IC50 is the concentration that gives 50% inhibition. The low end stands for greater potency, the high end for weaker potency.

Test [1] deals with Inosine-5'-monophosphate dehydrogenase 2 (Homo sapiens, UniProt P12268). Description: Inhibitory concentration against Inosine-5'-monophosphate dehydrogenase 2 was determined.
Test [2] has as its system CCRF-CEM. Description: Inhibitory concentration against T-cell proliferation response in a CEM cell line (BMS-337197,CEM). To be noted: Homo sapiens. It counts as functional, cell-based.

With `c1ccc(-c2cnc(Nc3ccc4c(-c5cnco5)c[nH]c4c3)o2)cc1`, the IC50 was 93 nM in test [1] and greater than 10000 nM in test [2]. Taken in the same sequence, the figures for `Cc1ccc(NC(=O)Nc2ccc3c(-c4cnco4)c[nH]c3c2)cc1` were 11 nM and greater than 10000 nM.

Turning to `O=C(Nc1ccccc1)Nc1ccc2c(-c3cnco3)c[nH]c2c1`, the IC50 was 40 nM in test [1] and greater than 10000 nM in test [2].

For `COc1cc(NC(=O)Nc2cccc(C)c2)ccc1-c1cnco1`, the IC50 in test [1] was determined as 19 nM; in test [2], 1000 nM. Taken in the same sequence, the figures for `Cc1ccc(-c2cnc(Nc3ccc4c(-c5cnco5)c[nH]c4c3)o2)cc1` were 205 nM and greater than 10000 nM. The corresponding values for `Cc1ccccc1-c1cnc(Nc2ccc3c(-c4cnco4)c[nH]c3c2)o1` are 38 nM and greater than 10000 nM.

Compound `Cc1ccc(NC(=O)Nc2ccc3c(-c4cnco4)cn(C)c3c2)cc1` had an IC50 in test [1] greater than 5000 nM.

Turning to `Cc1ccccc1NC(=O)Nc1ccc2c(-c3cnco3)c[nH]c2c1`, the results for the IC50 in test [1] and in test [2] were 35 nM and 9700 nM, respectively.

As for `CN(C(=O)CN1CCOCC1)c1ccccc1-c1cnc(Nc2ccc3c(-c4cnco4)c[nH]c3c2)o1`, the values for the IC50 in test [1] and in test [2] were 35 nM and 3000 nM, respectively. The corresponding values for `Cc1cccc(-c2cnc(Nc3ccc4c(-c5cnco5)c[nH]c4c3)o2)c1` are 77 nM and 1500 nM. In the case of `Cc1cccc(NC(=O)Nc2ccc3c(-c4cnco4)cn(C)c3c2)c1`, the IC50 in test [1] is greater than 5000 nM. Regarding `Cc1cccc(NC(=O)Nc2ccc3c(-c4cnco4)c[nH]c3c2)c1`, the figures for the IC50 in test [1] and in test [2] were 200 nM and greater than 10000 nM, respectively.

For `CC(=O)OCC(=O)N(C)c1ccccc1-c1cnc(Nc2ccc3c(-c4cnco4)c[nH]c3c2)o1`, the IC50 amounted to 7 nM in test [1] and 1000 nM in test [2]. `COc1cc(Nc2ncc(-c3ccccc3N(C)C(=O)CN3CCOCC3)o2)ccc1-c1cnco1`: the IC50 in test [1] stood at 16 nM; in test [2], 590 nM.
